In patent US10752596B2, “Nitrogen-containing heteroaryl compound and pharmaceutical use thereof” (JAPAN TOBACCO INC., priority 2017, dated 2020):

Target: human GLUT9 (Homo sapiens (Human), UniProt Q9NRM0)
Assay: Evaluation of human GLUT9 inhibitory activity ([14C] uric acid uptake in human GLUT9 expressing HEK293T cells transduced with Uricase/Hyper)
Format: cell-based
Conditions: final 300 μM uric acid, 6 min, human GLUT9 stably expressing HEK293T cells, read-out: humans GLUT9 inhibitory activity (IC50 value (μM))
Procedure: A method for measuring GLUT9 inhibitory activity using human GLUT9 expressing cells transduced with Uricase/Hyper is shown hereinafter. GLUT9 inhibitory activity ([…]) of the test compound was calculated based on the intracellular uptake amount of labeled uric acid ([^14C] uric acid) transported by GLUT9.
1. Preparation of Human GLUT9 Expression Plasmid
Human GLUT9S coding region (NM_001001290.1) was amplified by PCR method using PrimeSTAR MAX DNA Polymerase (Takara Bio). The obtained PCR product was subjected to agarose gel electrophoresis, and the desired size of PCR product was purified by QIAquick Gel Extraction Kit (QIAGEN). Next, pEBMulti-Bsd vector (Wako Pure Chemical Industries, Ltd.) was subjected to digestion using restriction enzymes SalI and EcoR V, and linked to the PCR product containing GLUT9S by In-Fusion reaction using In-Fusion HD Cloning Kit (Takara Bio). XL10-Gold Competent Cells (Agilent Technologies) were transformed in In-Fusion reaction solution, and the obtained transfectants were cultured with shaking overnight in LB medium to which Blasticidin S HCl (Thermo Fisher Scientific) was added. Human GLUT9 expression plasmid DNA was prepared from the collected transfectants using EndoFree Plasmid Kit (Takara Bio).
2. Establish of Human GLUT9 Stably Expressing Cell
HEK293T cells (American Type Culture Collection, DS Pharma Biomedical) were seeded in a 6 well plate at 1×10^6 cells/well. Next day, human GLUT9 expression plasmid was transfected by using Lipofectamine 3000 Reagent (Thermo Fisher Scientific) as follows. Lipofectamine 3000 Reagent (5 μL) was diluted with Opti-MEM (125 μL, Thermo Fisher Scientific). Separately, plasmid DNA (2.5 μg) was diluted with Opti-MEM (125 μL), and P3000 Reagent (5 μL) was added thereto. The obtained solution was mixed with the previously obtained diluted solution, and the mixture was left stand at room temperature for 5 min, and added to the cells. Next day, the transfected cells were diluted and reseeded in a 6 well plate at 4×10^5 cells/well, and drug selection was performed in the presence of 30 μg/mL of Blasticidin S HCl, and thereby, Blasticidin-resistant human GLUT9 stably expressing cell line was established. Mock cells were prepared by introducing pEBMulti-Bsd vector into HEK293T cells in a similar manner.
3. Preparation of Uricase/Hyper Expression Plasmid
Uricase/Hyper expression plasmid was prepared by linking the coding regions of Aspergillus Flavus-derived uricase gene and pHyPer-Cyto vector (Evrogen) HyPer gene to the pEBMulti-Hyg vector (Wako Pure Chemical Industries, Ltd.) and then introducing it. The preparation method was performed by reference to Gout and Nucleic Acid Metabolism 2013, 37(2), 93-101, and seven repeated linker sequence of glycine-glycine-glycine-serine was prepared herein.
4. Preparation of Human GLUT9-Uricase/Hyper Coexpressing Cell
Human GLUT9 stably expressing cells were seeded at 3.6×10^7 cells per 225 cm^2 flask. Next day, Uricase/Hyper expression plasmid was transfected by using Lipofectamine 3000 Reagent as follows. Lipofectamine 3000 Reagent (40 μL) was diluted with Opti-MEM (750 μL). Separately, plasmid DNA (20 μg) was diluted with Opti-MEM (750 μL), and P3000 Reagent (40 μL) was added thereto. The obtained solution was mixed with the previously obtained diluted solution, and the mixture was left stand at room temperature for 5 min, and added to the cells. Next day, transfected cells were collected to prepare human GLUT9-Uricase/Hyper coexpressing cells.
5. Evaluation of GLUT9 Inhibitory Activity
Uricase/Hyper transiently-transfected human GLUT9 stably expressing cells or mock cells (blank) were seeded in a 96 well plate (Corning) at 1.6×10^5 cells/well, and cultured overnight at 37° C., 5% CO2. D-MEM/high glucose (Wako Pure Chemical Industries, Ltd.) containing 10% Fetal Bovine Serum (Lifetechnology) and 100 units/ml penicillin/100 μg/ml streptomycin (GIBCO) was used as a medium.

Chain of human GLUT9 (Q9NRM0 other isoform, or with tags, fused parts or gaps): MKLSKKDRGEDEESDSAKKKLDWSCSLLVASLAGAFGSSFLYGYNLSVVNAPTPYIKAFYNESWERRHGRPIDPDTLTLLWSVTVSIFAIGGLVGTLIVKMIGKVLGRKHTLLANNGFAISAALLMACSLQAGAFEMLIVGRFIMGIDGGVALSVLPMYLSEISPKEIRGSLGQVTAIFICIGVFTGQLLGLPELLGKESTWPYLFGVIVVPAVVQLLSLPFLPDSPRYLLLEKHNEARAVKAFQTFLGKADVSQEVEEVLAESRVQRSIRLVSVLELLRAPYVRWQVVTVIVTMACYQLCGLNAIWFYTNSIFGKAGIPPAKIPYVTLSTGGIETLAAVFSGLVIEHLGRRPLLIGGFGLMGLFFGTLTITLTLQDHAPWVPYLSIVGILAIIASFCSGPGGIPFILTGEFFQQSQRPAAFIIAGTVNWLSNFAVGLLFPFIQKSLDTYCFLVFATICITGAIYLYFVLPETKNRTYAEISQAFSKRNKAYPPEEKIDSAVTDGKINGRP

IC50 [µM] | SMILES
2.21 | COCc1cnc(-c2ccc(OC)cc2)c(-c2ccc(C(=O)O)cc2)c1 [Example 78]
0.369 | CCCCc1cnc(-c2ccc(CCC)cc2)c(-c2ccc(C(=O)O)cc2)n1 [Example 79]
0.0662 | CCCCc1cnc(-c2ccc(OC)cc2)c(-c2ccc(C(=O)O)c(C)c2)n1 [Example 83]
0.117 | COCCCc1cnc(-c2ccc(OC)cc2)c(-c2ccc(C(=O)O)cc2)c1 [Example 84, 4-(2-(4-methoxyphenyl)-5-(3-methoxypropyl)pyridin-3-yl)benzoic Acid]
1.82 | CCCCc1cnc(-c2ccc(COC)cc2)c(-c2ccc(C(=O)O)cc2)n1 [Example 86]
1.79 | CCCCc1cnc(-c2ccc(CC#N)cc2)c(-c2ccc(C(=O)O)cc2)n1 [Example 87]
0.928 | CCCCc1cnc(-c2ccc(C(C)C)cc2)c(-c2ccc(C(=O)O)cc2)n1 [Example 88]
1.8 | CCCCc1cnc(-c2ccc(C3COC3)cc2)c(-c2ccc(C(=O)O)cc2)n1 [Example 89]
0.247 | CCCCc1cnc(-c2ccc(OC)cc2)c(-c2ccc(C(=O)O)c(O)c2)n1 [Example 91]
0.181 | CCCCc1cnc(-c2ccc(OC)cc2)c(-c2ccc(C(=O)O)c(Cl)c2)n1 [Example 92]
0.184 | CCCCc1cnc(-c2ccc(OC)cc2)c(-c2ccc(CCC(=O)O)c(F)c2)n1 [Example 93]
0.0576 | COCCCc1cnc(-c2cc(F)c(OC)c(F)c2)c(-c2ccc(CCC(=O)O)cc2)c1 [Example 95]
0.0887 | COc1ccc(-c2ncc(CC3CC3)cc2-c2ccc(C(=O)O)cc2)cc1 [Example 96]
0.0795 | COCCCc1cnc(-c2cc(F)c(OC)c(F)c2)c(-c2ccc(CCC(=O)O)cc2)n1 [Example 97]
0.0605 | COc1c(F)cc(-c2ncc(CC(C)C)nc2-c2ccc(C(=O)O)cc2)cc1F [Example 98]
0.0514 | COc1c(F)cc(-c2ncc(CC(C)C)cc2-c2ccc(C(=O)O)cc2)cc1F [Example 99]
0.082 | CCCCCCc1cnc(-c2ccc(OC)cc2)c(-c2ccc(C(=O)O)cc2)c1 [Example 100]
0.164 | COc1ccc(-c2ncc(Cc3ccccc3)cc2-c2ccc(C(=O)O)cc2)cc1 [Example 101]
0.79 | COCCc1cnc(-c2ccc(OC)cc2)c(-c2ccc(C(=O)O)cc2)c1 [Example 102]

IC50 [µM] | SMILES
0.453 | COc1ccc(-c2ncc(CCc3ccccc3)cc2-c2ccc(C(=O)O)cc2)cc1 [Example 105]
0.101 | COCCCc1cnc(-c2ccc(OC)c(F)c2)c(-c2ccc(C(=O)O)cc2)c1 [Example 106]
0.0627 | COCCCc1cnc(-c2cc(F)c(OC)c(F)c2)c(-c2ccc(C(=O)O)cc2)c1 [Example 107]
0.0712 | COCCCc1cnc(-c2ccc(OC)c(F)c2)c(-c2ccc(CCC(=O)O)cc2)c1 [Example 108]
0.0799 | COCCCc1cnc(-c2cc(F)c(OC)c(F)c2)c(-c2ccc(C(=O)O)c(C)c2)n1 [Example 109]
0.265 | CCCCc1cnc(-c2ccc(OC)cc2)c(-c2cc(C)c(C(=O)O)c(C)c2)n1 [Example 110]
0.0826 | CCCCc1cnc(-c2ccc(OC)cc2)c(-c2ccc(C(=O)O)c(CC)c2)n1 [Example 111]
0.561 | COCCCc1cnc(-c2cc(F)c(OC)c(F)c2)c(-c2ccc(C(=O)O)c(F)c2)n1 [Example 112]
1 | COCCCc1cnc(-c2ccc(OC)c(F)c2)c(-c2ccc(C(=O)O)c(F)c2)n1 [Example 113]
0.0604 | CCCCc1cnc(-c2ccc(OC)cc2)c(-c2ccc(C(=O)O)c(C)c2)c1 [Example 114]
0.0497 | COCCCc1cnc(-c2cc(F)c(OC)c(F)c2)c(-c2ccc(C(=O)O)c(C)c2)c1 [Example 115]
0.0684 | COCCCc1cnc(-c2ccc(OC)cc2)c(-c2ccc(C(=O)O)c(C)c2)c1 [Example 116, 4-(2-(4-methoxyphenyl)-5-(3-methoxypropyl)pyridin-3-yl)-2-methylbenzoic Acid]
0.543 | CCOCCc1cnc(-c2cc(F)c(OC)c(F)c2)c(-c2ccc(C(=O)O)cc2)n1 [Example 117]
0.108 | CCCOCc1cnc(-c2ccc(OC)cc2)c(-c2ccc(C(=O)O)cc2)c1 [Example 118, 4-(2-(4-methoxyphenyl)-5-(propoxymethyl)pyridin-3-yl)benzoic Acid]
0.501 | COCCOCCCc1cnc(-c2ccc(OC)cc2)c(-c2ccc(C(=O)O)cc2)c1 [Example 119]
0.539 | COCCCc1cnc(-c2ccc(OC)cc2)c(-c2ccc(C(=O)O)c(Cl)c2)c1 [Example 120]
0.501 | COCCCc1cnc(-c2cc(F)c(OC)c(F)c2)c(-c2ccc(C(=O)O)c(Cl)c2)n1 [Example 121]
0.0589 | COCCCCc1cnc(-c2ccc(OC)cc2)c(-c2ccc(C(=O)O)cc2)c1 [Example 123]
0.229 | COCCCCc1cnc(-c2ccc(OC)cc2)c(-c2ccc(C(=O)O)c(Cl)c2)c1 [Example 125]

IC50 [µM] | SMILES
0.0497 | COCCCCc1cnc(-c2ccc(OC)cc2)c(-c2ccc(C(=O)O)c(C)c2)c1 [Example 126]
0.0688 | COCCCCc1cnc(-c2ccc(OC)cc2)c(-c2ccc(CCC(=O)O)cc2)c1 [Example 127]
0.0569 | COCCCCc1cnc(-c2cc(F)c(OC)c(F)c2)c(-c2ccc(C(=O)O)cc2)c1 [Example 129]
0.0521 | COCCCCc1cnc(-c2cc(F)c(OC)c(F)c2)c(-c2ccc(C(=O)O)c(C)c2)c1 [Example 130]
0.155 | COCCCCc1cnc(-c2cc(F)c(OC)c(F)c2)c(-c2ccc(C(=O)O)c(Cl)c2)c1 [Example 131]
0.0519 | COCCCCc1cnc(-c2cc(F)c(OC)c(F)c2)c(-c2ccc(CCC(=O)O)cc2)c1 [Example 132]
0.313 | CCOCCc1cnc(-c2cc(F)c(OC)c(F)c2)c(-c2ccc(C(=O)O)c(C)c2)n1 [Example 133]
0.525 | CCOCCc1cnc(-c2cc(F)c(OC)c(F)c2)c(-c2ccc(CCC(=O)O)cc2)n1 [Example 134]
0.0613 | COCCCCc1cnc(-c2cc(F)c(OC)c(F)c2)c(-c2ccc(C(=O)O)c(C)c2)n1 [Example 135]
0.25 | COCCCCc1cnc(-c2cc(F)c(OC)c(F)c2)c(-c2ccc(C(=O)O)c(Cl)c2)n1 [Example 136]
0.0917 | CCOCCc1cnc(-c2ccc(OC)cc2)c(-c2ccc(C(=O)O)c(C)c2)c1 [Example 137]
0.499 | CCOCCc1cnc(-c2ccc(OC)cc2)c(-c2ccc(C(=O)O)c(Cl)c2)c1 [Example 138]
0.167 | CCOCCc1cnc(-c2ccc(OC)cc2)c(-c2ccc(CCC(=O)O)cc2)c1 [Example 139]
0.0713 | CCOCCc1cnc(-c2cc(F)c(OC)c(F)c2)c(-c2ccc(C(=O)O)cc2)c1 [Example 140]
0.0639 | CCOCCc1cnc(-c2cc(F)c(OC)c(F)c2)c(-c2ccc(C(=O)O)c(C)c2)c1 [Example 141]
0.226 | CCOCCc1cnc(-c2cc(F)c(OC)c(F)c2)c(-c2ccc(C(=O)O)c(Cl)c2)c1 [Example 142]
0.125 | CCCOCc1cnc(-c2ccc(OC)cc2)c(-c2ccc(C(=O)O)c(C)c2)c1 [Example 143]
0.139 | CCCOCc1cnc(-c2cc(F)c(OC)c(F)c2)c(-c2ccc(CCC(=O)O)cc2)c1 [Example 146]
0.0868 | CCCOCc1cnc(-c2cc(F)c(OC)c(F)c2)c(-c2ccc(C(=O)O)c(C)c2)c1 [Example 147]
